Laboratory results taken from ChEMBL document CHEMBL3045427, “Synthesis, anticonvulsant and neurotoxic activity of some new 2,5-disubstituted-1,3,4-oxadiazoles” (Med Chem Res, 2011).
The source made the active and inactive calls. No cut-off for these calls is given here.

Experiments:
Mus musculus [1] = experiment: Neurotoxicity in ip dosed Mus musculus albino (mouse) assessed as minimal motor impairment after 4 hr by rotarod test; type: toxicity, organism-based; settings: in vivo
Mus musculus [2] = experiment: Anticonvulsant activity in ip dosed Mus musculus albino (mouse) assessed as protection against maximal electroshock-induced seizure after 0.5 hr; type: functional; settings: read-out: MED
Mus musculus [3] = experiment: Anticonvulsant activity in Mus musculus albino (mouse) assessed as protection against subcutaneous metrazole-induced seizure at 300 mg/kg, ip after 0.5 hr; type: functional, organism-based; parameters: dose 300 mg/kg
Mus musculus [4] = experiment: Anticonvulsant activity in ip dosed Mus musculus albino (mouse) assessed as protection against maximal electroshock-induced seizure after 4 hr; type: functional; settings: read-out: MED
Mus musculus [5] = experiment: Neurotoxicity in ip dosed Mus musculus albino (mouse) assessed as minimal motor impairment after 0.5 hr by rotarod test; type: toxicity, organism-based; settings: in vivo
Mus musculus [6] = experiment: Anticonvulsant activity in Mus musculus albino (mouse) assessed as protection against subcutaneous metrazole-induced seizure at 300 mg/kg, ip after 4 hr; type: functional, organism-based; parameters: dose 300 mg/kg
Mus musculus [7] = experiment: Neurotoxicity in Mus musculus albino (mouse) assessed as minimal motor impairment at 300 mg/kg, ip after 4 hr by rotarod test; type: toxicity, organism-based; parameters: dose 300 mg/kg, route intraperitoneal; settings: in vivo
Mus musculus [8] = experiment: Anticonvulsant activity in Mus musculus albino (mouse) assessed as protection against maximal electroshock-induced seizure at 300 mg/kg, ip after 0.5 hr; type: functional, organism-based; parameters: dose 300 mg/kg
Mus musculus [9] = experiment: Neurotoxicity in Mus musculus albino (mouse) assessed as minimal motor impairment at 300 mg/kg, ip after 0.5 hr by rotarod test; type: toxicity, organism-based; parameters: dose 300 mg/kg, route intraperitoneal; settings: in vivo
Mus musculus [10] = experiment: Anticonvulsant activity in ip dosed Mus musculus albino (mouse) assessed as protection against subcutaneous metrazole-induced seizure after 0.5 hr; type: functional; settings: read-out: MED
Mus musculus [11] = experiment: Anticonvulsant activity in ip dosed Mus musculus albino (mouse) assessed as protection against subcutaneous metrazole-induced seizure after 4 hr; type: functional; settings: read-out: MED
Mus musculus [12] = experiment: Anticonvulsant activity in Mus musculus albino (mouse) assessed as protection against maximal electroshock-induced seizure at 300 mg/kg, ip after 4 hr; type: functional, organism-based; parameters: dose 300 mg/kg

For O=C1NC(=O)C(c2ccccc2)(c2ccccc2)N1 [PHENYTOIN], the MTC (Mus musculus [1]) was 100 mg/kg, the minimal effective dose (Mus musculus [2]) was 30 mg/kg and the Activity (Mus musculus [3]) was “inactive”. The minimal effective dose (Mus musculus [4]) was 30 mg/kg, the MTC (Mus musculus [5]) was 100 mg/kg and the Activity (Mus musculus [6]) was “inactive”.
For CC(C)=CCC/C(C)=C\C=N/NC(=O)Nc1nnc(-c2ccc(C)cc2)o1, the Activity (Mus musculus [7]) was “Non-toxic”, the Activity (Mus musculus [3]) was “inactive” and the Activity (Mus musculus [8]) was “inactive”. For the same compound, the minimal effective dose (Mus musculus [4]) was 300 mg/kg, the Activity (Mus musculus [6]) was “inactive” and the Activity (Mus musculus [9]) was “Non-toxic”.
NC(=O)N1c2ccccc2C=Cc2ccccc21 [CARBAMAZEPINE] showed an MTC (Mus musculus [1]) of 300 mg/kg, a minimal effective dose (Mus musculus [10]) of 100 mg/kg and a minimal effective dose (Mus musculus [2]) of 30 mg/kg. The minimal effective dose (Mus musculus [4]) was 100 mg/kg, the minimal effective dose (Mus musculus [11]) was 300 mg/kg and the MTC (Mus musculus [5]) was 100 mg/kg.
For CC(C)=CCC/C(C)=C\C=N/c1nnc(-c2ccc(C)cc2)o1, the Activity (Mus musculus [7]) was “Non-toxic”, the Activity (Mus musculus [3]) was “inactive” and the Activity (Mus musculus [12]) was “inactive”. For the same compound, the Activity (Mus musculus [8]) was “inactive”, the Activity (Mus musculus [6]) was “inactive” and the Activity (Mus musculus [9]) was “Non-toxic”.
In the case of CC(C)=CCC/C(C)=C\C=N/NC(=O)Nc1nnc(-c2ccc(Cl)cc2)o1, the minimal effective dose (Mus musculus [2]) is reported as 30 mg/kg, the Activity (Mus musculus [7]) is reported as “Non-toxic” and the Activity (Mus musculus [3]) is reported as “inactive”. The Activity (Mus musculus [12]) was “inactive”, the Activity (Mus musculus [6]) was “inactive” and the Activity (Mus musculus [9]) was “Non-toxic”.
With CC(C)=CCC/C(C)=C\C=N/c1nnc(-c2ccc(Cl)cc2)o1 the Activity (Mus musculus [7]) was “Non-toxic”, the Activity (Mus musculus [3]) was “inactive” and the Activity (Mus musculus [8]) was “inactive”. For the same compound, the minimal effective dose (Mus musculus [4]) was 300 mg/kg, the minimal effective dose (Mus musculus [11]) was 300 mg/kg and the Activity (Mus musculus [9]) was “Non-toxic”.
In the case of CC(C)=CCC/C(C)=C\C=N/NC(=O)Nc1nnc(-c2ccccc2)o1, the Activity (Mus musculus [7]) is reported as “Non-toxic”, the Activity (Mus musculus [3]) is reported as “inactive” and the Activity (Mus musculus [8]) is reported as “inactive”. The minimal effective dose (Mus musculus [4]) was 300 mg/kg, the Activity (Mus musculus [6]) was “inactive” and the Activity (Mus musculus [9]) was “Non-toxic”.
Compound CC(C)=CCC/C(C)=C\C=N/c1nnc(-c2ccccc2)o1 has an MTC (Mus musculus [1]) of 300 mg/kg, a minimal effective dose (Mus musculus [10]) of 300 mg/kg and a minimal effective dose (Mus musculus [2]) of 30 mg/kg. For the same compound, the minimal effective dose (Mus musculus [4]) was 100 mg/kg, the minimal effective dose (Mus musculus [11]) was 300 mg/kg and the MTC (Mus musculus [5]) was 300 mg/kg.
COc1ccc(-c2nnc(/N=C\C=C(\C)CCC=C(C)C)o2)cc1 was tested, and the Activity (Mus musculus [7]) was “Non-toxic”, the Activity (Mus musculus [3]) was “inactive” and the Activity (Mus musculus [12]) was “inactive”. The Activity (Mus musculus [8]) was “inactive”, the Activity (Mus musculus [6]) was “inactive” and the Activity (Mus musculus [9]) was “Non-toxic”.
With COc1ccc(-c2nnc(NC(=O)N/N=C\C=C(\C)CCC=C(C)C)o2)cc1 the Activity (Mus musculus [7]) was “Non-toxic”, the Activity (Mus musculus [3]) was “inactive” and the Activity (Mus musculus [8]) was “inactive”. The minimal effective dose (Mus musculus [4]) was 300 mg/kg, the Activity (Mus musculus [6]) was “inactive” and the Activity (Mus musculus [9]) was “Non-toxic”.
